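Protocol summary: plate cells (96-well), add compound at 5 concentrations, incubate 48 h, interpolate endpoints linearly. TGI denotes the concentration required for complete inhibition of growth.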

For one test, the system named is DU-145 prostate. Nature of the test: NCI anticancer screen, dose series, 48 h.
Consider `Cc1sc2nc3n(c(=O)c2c1C)N=CN(c1ccccc1)C3`, for which the TGI is > 100 µM.

As to `c1ccc([P+](CCNCCNCC[P+](c2ccccc2)(c2ccccc2)c2ccccc2)(c2ccccc2)c2ccccc2)cc1`, the TGI is > 100 µM.

Turning to `c1ccc(C[P+]2(c3ccccc3)c3ccccc3-c3ccccc32)cc1`, the TGI was > 100 µM.

Consider `N#C/C(=C\NC(=S)Nc1ccc(S(=O)(=O)Nc2ccccn2)cc1)C(N)=O`, for which the TGI was > 100 µM.

As to `CC(=O)NC1C(OCc2ccccc2)OC(CO)C(O)C1OCC(=O)N[C@@H](C)C(=O)N[C@H](CCC(=O)NCCNCCNc1c2ccccc2nc2cccc([N+](=O)[O-])c12)C(N)=O` (stereo partly drawn), the TGI is > 100 µM.

`c1cc2nnc1SCCSCCSc1ccc(nn1)SCCSCCS2`: the TGI was > 100 µM.

As to `Cc1ccccc1C1OC1C(=O)c1ccccc1N` (stereo not drawn), the TGI is > 100 µM.

A further test deals with HS 578T breast. Nature of the test: NCI anticancer screen, dose series, 48 h.
Regarding `CC(C)(C)C(=O)C(CC(=O)c1ccccc1)C(=O)C(C)(C)C`, the TGI is > 100 µM.

For `Cc1cn(C2C=CC(COP(=O)(OCC3=CC(=O)c4ccccc4C3=O)N(C)CCCCCl)O2)c(=O)[nH]c1=O` (stereo not drawn), the TGI was 18.6 µM.

For `O=C1CC2C=CC(O)C(C1)C2` (stereo not drawn), the TGI is > 100 µM.

Consider `CC(C)(C)OC(=O)NC(C)(C)C(=O)NCCC(=O)O`, for which the TGI was > 100 µM.

Turning to `c1ccc([P+](CCNCCNCC[P+](c2ccccc2)(c2ccccc2)c2ccccc2)(c2ccccc2)c2ccccc2)cc1`, the TGI was > 100 µM.

In the case of `c1ccc(C[P+]2(c3ccccc3)c3ccccc3-c3ccccc32)cc1`, the TGI was > 100 µM.

For the compound `CCOc1ccc(N/C(=C(/C(Cl)=C(/Cl)NCCN)[N+](=O)[O-])n2nnc3ccccc32)cc1`, the TGI is 98.2 µM.

In the case of `N#C/C(=C\NC(=S)Nc1ccc(S(=O)(=O)Nc2ccccn2)cc1)C(N)=O`, the TGI was > 100 µM.

Consider `CC(=O)NC1C(OCc2ccccc2)OC(CO)C(O)C1OCC(=O)N[C@@H](C)C(=O)N[C@H](CCC(=O)NCCNCCNc1c2ccccc2nc2cccc([N+](=O)[O-])c12)C(N)=O` (stereo partly drawn), for which the TGI is > 100 µM.

As for `c1cc2nnc1SCCSCCSc1ccc(nn1)SCCSCCS2`, the TGI was > 100 µM.

As for `O=C(Cc1nc2ccc(C(=O)c3ccccc3)cc2[nH]c1=O)C(=O)Nc1ccc(Br)cc1`, the TGI was > 100 µM.

In another test the test system is MALME-3M melanoma. Nature of the test: NCI anticancer screen, dose series, 48 h.
Take `CC(C)CC(N)C(=O)OCN1C(=O)C2C3C=CC(C2C1=O)C1C2C(=O)N(COC(=O)C(N)CC(C)C)C(=O)C2C31` (stereo not drawn): the TGI is > 100 µM.

As for `CC(C)(C)C(=O)C(CC(=O)c1ccccc1)C(=O)C(C)(C)C`, the TGI is > 100 µM.

For the compound `COC(=O)c1cc(CC(C)C)c2c(c1)[nH]c1ccccc12`, the TGI was > 100 µM.

As for `Cc1cn(C2C=CC(COP(=O)(OCC3=CC(=O)c4ccccc4C3=O)N(C)CCCCCl)O2)c(=O)[nH]c1=O` (stereo not drawn), the TGI turned out to be 0.982 µM.

In the case of `C[N+](C)(C)CC(=O)N/N=c1\cc(C(=O)Nc2ccc(N=O)cc2C#N)oc2cc(O)ccc12`, the TGI was > 100 µM.

Take `N#CCCN(c1ccc(C=Nc2cccc([N+](=O)[O-])c2)cc1)S(=O)(=O)c1ccccc1`: the TGI is > 100 µM.

`COc1ccc(/C(=C/n2ccnc2)C(=O)c2ccc(OC)c(OC)c2)cc1`: the TGI is > 100 µM.

Compound `O=C1CC2(C[C@@H]3CCCCCCCCC[C@@H](C3)C2)N1` (stereo partly drawn) gave a TGI of 24.5 µM.

For `O=C1CC2C=CC(O)C(C1)C2` (stereo not drawn), the TGI was > 100 µM.

As for `Cc1sc2nc3n(c(=O)c2c1C)N=CN(c1ccccc1)C3`, the TGI is > 100 µM.

`CC(C)C(Sc1nc(-c2ccccc2)c(-c2ccccc2)[nH]1)C(=O)NNC(=S)Nc1ccccc1` (stereo not drawn) showed a TGI of 33.3 µM.

As to `COC1O[C@H]2CCN(C(=O)OCc3ccccc3)[C@H]2[C@H]1OCc1ccccc1` (stereo partly drawn), the TGI was > 100 µM.

As to `COc1ccc(C2C(Cl)C(=O)N2NC(=O)c2ccc(NC(C)=O)cc2)cc1` (stereo not drawn), the TGI was > 100 µM.

Regarding `Cc1c(Cl)cccc1NC(=O)C(=O)C1C(=O)CC(C)(C)CC1=O`, the TGI is > 100 µM.

On to `O=C1O[C@@H](c2ccccc2)C[C@@H]1CN1CCOCC1`, for which the TGI was > 100 µM.

With `COc1ccc2nc(-c3ccc(OCc4ccccc4)cc3)ccc2c1`, the TGI is > 100 µM.

In turn, `CCOc1ccc(N/C(=C(/C(Cl)=C(/Cl)NCCN)[N+](=O)[O-])n2nnc3ccccc32)cc1` returned a TGI of 27.6 µM.

Take `N#C/C(=C\NC(=S)Nc1ccc(S(=O)(=O)Nc2ccccn2)cc1)C(N)=O`: the TGI is > 100 µM.

With `COC1(C)CC2N(C(=O)c3ccccc3)N=C(c3ccccc3)CC2(C)O1` (stereo not drawn), the TGI was > 100 µM.

On to `CC(=O)NC1C(OCc2ccccc2)OC(CO)C(O)C1OCC(=O)N[C@@H](C)C(=O)N[C@H](CCC(=O)NCCNCCNc1c2ccccc2nc2cccc([N+](=O)[O-])c12)C(N)=O` (stereo partly drawn), for which the TGI turned out to be 55.5 µM.

Regarding `c1cc2nnc1SCCSCCSc1ccc(nn1)SCCSCCS2`, the TGI was > 100 µM.

Turning to `O=C(Cc1nc2ccc(C(=O)c3ccccc3)cc2[nH]c1=O)C(=O)Nc1ccc(Br)cc1`, the TGI is > 100 µM.

Turning to `Nc1ccccc1Nc1ccccc1C(=O)[O-].Nc1ccccc1Nc1ccccc1C(=O)[O-].[Cu+2]`, the TGI is > 100 µM.

With `CCOC(=O)C(OCC1CC=CCC1)Sc1ccccc1` (stereo not drawn), the TGI was > 100 µM.

Another test relates to OVCAR-5 ovarian. Nature of the test: NCI anticancer screen, dose series, 48 h.
Turning to `CC(C)CC(N)C(=O)OCN1C(=O)C2C3C=CC(C2C1=O)C1C2C(=O)N(COC(=O)C(N)CC(C)C)C(=O)C2C31` (stereo not drawn), the TGI was > 100 µM.

On to `CC(C)(C)C(=O)C(CC(=O)c1ccccc1)C(=O)C(C)(C)C`, for which the TGI was > 100 µM.

On to `COC(=O)c1cc(CC(C)C)c2c(c1)[nH]c1ccccc12`, for which the TGI was > 100 µM.

In turn, `Cc1cn(C2C=CC(COP(=O)(OCC3=CC(=O)c4ccccc4C3=O)N(C)CCCCCl)O2)c(=O)[nH]c1=O` (stereo not drawn) returned a TGI of 27.1 µM.

Turning to `C[N+](C)(C)CC(=O)N/N=c1\cc(C(=O)Nc2ccc(N=O)cc2C#N)oc2cc(O)ccc12`, the TGI was > 100 µM.

Take `COc1ccc(/C(=C/n2ccnc2)C(=O)c2ccc(OC)c(OC)c2)cc1`: the TGI is > 100 µM.

`O=C1CC2(C[C@@H]3CCCCCCCCC[C@@H](C3)C2)N1` (stereo partly drawn): the TGI stood at 29.6 µM.

On to `O=C1CC2C=CC(O)C(C1)C2` (stereo not drawn), for which the TGI is > 100 µM.

In the case of `Cc1sc2nc3n(c(=O)c2c1C)N=CN(c1ccccc1)C3`, the TGI was > 100 µM.

`CC(C)C(Sc1nc(-c2ccccc2)c(-c2ccccc2)[nH]1)C(=O)NNC(=S)Nc1ccccc1` (stereo not drawn) came in with a TGI of 32.6 µM.

As for `COC1O[C@H]2CCN(C(=O)OCc3ccccc3)[C@H]2[C@H]1OCc1ccccc1` (stereo partly drawn), the TGI is > 100 µM.

For the compound `CC(C)(C)OC(=O)NC(C)(C)C(=O)NCCC(=O)O`, the TGI was > 100 µM.

For `COc1ccc(C2C(Cl)C(=O)N2NC(=O)c2ccc(NC(C)=O)cc2)cc1` (stereo not drawn), the TGI was > 100 µM.

Turning to `c1ccc([P+](CCNCCNCC[P+](c2ccccc2)(c2ccccc2)c2ccccc2)(c2ccccc2)c2ccccc2)cc1`, the TGI is > 100 µM.

Take `Cc1c(Cl)cccc1NC(=O)C(=O)C1C(=O)CC(C)(C)CC1=O`: the TGI was > 100 µM.

In the case of `O=C1O[C@@H](c2ccccc2)C[C@@H]1CN1CCOCC1`, the TGI is > 100 µM.

On to `COc1ccc2nc(-c3ccc(OCc4ccccc4)cc3)ccc2c1`, for which the TGI is > 100 µM.

As for `CCOc1ccc(N/C(=C(/C(Cl)=C(/Cl)NCCN)[N+](=O)[O-])n2nnc3ccccc32)cc1`, the TGI is > 100 µM.

In the case of `N#C/C(=C\NC(=S)Nc1ccc(S(=O)(=O)Nc2ccccn2)cc1)C(N)=O`, the TGI was > 100 µM.

In the case of `COC1(C)CC2N(C(=O)c3ccccc3)N=C(c3ccccc3)CC2(C)O1` (stereo not drawn), the TGI was > 100 µM.

Consider `CC(=O)NC1C(OCc2ccccc2)OC(CO)C(O)C1OCC(=O)N[C@@H](C)C(=O)N[C@H](CCC(=O)NCCNCCNc1c2ccccc2nc2cccc([N+](=O)[O-])c12)C(N)=O` (stereo partly drawn), for which the TGI was > 100 µM.

These data come from PubChem BioAssay (NCI).
